The target in the experiment is T1, human SCD1 (Homo sapiens, UniProt O00767).
T1 construct: made in house; host or cells: baculovirus/Sf9
T1 sequence (O00767 1-359): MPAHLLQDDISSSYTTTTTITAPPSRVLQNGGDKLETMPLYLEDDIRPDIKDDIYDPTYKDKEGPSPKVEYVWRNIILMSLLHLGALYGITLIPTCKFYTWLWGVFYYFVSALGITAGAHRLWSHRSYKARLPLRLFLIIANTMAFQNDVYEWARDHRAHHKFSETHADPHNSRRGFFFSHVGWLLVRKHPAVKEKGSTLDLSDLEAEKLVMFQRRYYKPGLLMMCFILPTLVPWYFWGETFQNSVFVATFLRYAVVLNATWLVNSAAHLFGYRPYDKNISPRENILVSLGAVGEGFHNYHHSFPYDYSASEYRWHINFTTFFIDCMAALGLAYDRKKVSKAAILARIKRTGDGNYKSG
The experiment in a line: SCD enzyme activity assay, reconstituted human SCD1 desaturase system ([3H]-stearoyl-CoA conversion). It counts as biochemical. As to conditions: read-out: IC50 hSCD-1. The protocol:
The potency of compounds of formula I against the stearoyl-CoA desaturase was determined by measuring the conversion of radiolabeled stearoyl-CoA to oleoyl-CoA using rat liver microsome or human SCD1 following previously published procedures with some modifications (Joshi, et al., J. Lipid Res., 18: 32-36 (1977); Talamo, et al., Anal. Biochem, 29: 300-304 (1969)). Liver microsome was prepared from male Wistar or Sprague Dawley rats on a high carbohydrate diet for 3 days (LabDiet #5803, Purina). The livers were homogenized (1:10 w/v) in a buffer containing 250 mM sucrose, 1 mM EDTA, 5 mM DTT and 50 mM Tris-HCl (pH 7.5). After a 100,000×g centrifugation for […], the liver microsome pellet was suspended in a buffer containing 100 mM sodium phosphate, 20% glycerol, 2 mM DTT, and stored at −78° C. Human SCD1 desaturase system was reconstituted using human SCD1 from a baculovirus/Sf9 expression system, cytochrome B5 and cytochrome B5 reductase. Typically, test compound in 2 μL DMSO was incubated for […] at room temperature with 180 μL of the SCD enzyme in a buffer containing 100 mM Tris-HCl (pH 7.5), ATP (5 mM), Coenzyme-A (0.1 mM), Triton X-100 (0.5 mM) and NADH (2 mM). The reaction was initiated by the addition of 20 μL of [^3H]-stearoyl-CoA (final concentration=2 μM, radioactivity concentration=1 μCi/mL). After 10 min, the reaction mixture (80 μL) was mixed with a calcium chloride/charcoal aqueous suspension (100 μL charcoal (10% w/v) plus 25 μL CaCl2 (2N). After centrifugation to precipitate the radioactive fatty acid species, tritiated water released from 9,10-[^3H]-stearoyl-CoA by the SCD enzyme was quantified on a scintillation counter.

Regarding “(5-{2-[4-(2-Chlorophenyl)-1′H-spiro[chromene-2,4′-piperidin]-1′-yl]-1,3-thiazol-5-yl}-2H-tetrazol-2-yl)acetic acid [Example 1]”, the IC50 turned out to be 0.92 nM. For “2-(5-(2-(4-(4-Fluorophenyl)spiro[chromene-2,4′-piperidine]-1′-yl)thiazol-5-yl)-2H-tetrazol-2-yl)acetic acid [Example 6]” the value was 1.3 nM; for “(5-{5-[4-(2-Chlorophenyl)-1′H-spiro[chromene-2,4′-piperidin]-1′-yl]-1,3,4-thiadiazol-2-yl}-2H-tetrazol-2-yl)acetic acid [Example 2]”, 0.61 nM. The result for `O=C(O)Cn1nnc(-c2cnc(N3CCC4(C=C(c5ccc(OC(F)(F)F)cc5)c5ccccc5O4)CC3)s2)n1` [Example 3, [5-(2-{-4-[4-(Trifluoromethoxy)phenyl]-1′H-spiro[chromene-2,4′-piperidin]-1′-yl}-1,3-thiazol-5-yl)-2H-tetrazol-2-yl]acetic acid] reads 1.1 nM; that for “(5-{5-[4-(2-Chlorophenyl)-1′H-spiro[chromene-2,4′-piperidin]-1′-yl]-1,3,4-thiadiazol-2-yl}-2H-tetrazol-2-yl)acetic acid [Example 4]”, 2 nM. The result for “2-(5-(5-(4-(4-Fluorophenyl)spiro[chromene-2,4′-piperidine]-1′-yl)-1,3,4-thiadiazol-2-yl)-2H-tetrazol-2-yl)acetic acid [Example 7]” reads 0.97 nM; that for “(5-{2-[4-(2,4-Dichlorophenyl)-1′H-spiro[chromene-2,4′-piperidin]-1′-yl]-1,3-thiazol-5-yl}-2H-tetrazol-2-yl)acetic acid [Example 5]”, 1.1 nM.

A word on the IC50: it is the concentration needed to halve the response being measured.

For the origin of these results see patent US8383643B2, “Spiro compounds useful as inhibitors of stearoyl-coenzyme A delta-9 desaturase” (Merck Canada Inc., priority 2009, dated 2013).
